Laboratory results: ChEMBL document CHEMBL3046901, “3D-pharmacophore model based virtual screening to identify dual-binding site and selective acetylcholinesterase inhibitors” (Med Chem Res, 2011)

target: Acetylcholinesterase (Homo sapiens, UniProt P22303); test: Inhibition of acetylcholinesterase (unknown origin)
Sequence (P22303 whole entry): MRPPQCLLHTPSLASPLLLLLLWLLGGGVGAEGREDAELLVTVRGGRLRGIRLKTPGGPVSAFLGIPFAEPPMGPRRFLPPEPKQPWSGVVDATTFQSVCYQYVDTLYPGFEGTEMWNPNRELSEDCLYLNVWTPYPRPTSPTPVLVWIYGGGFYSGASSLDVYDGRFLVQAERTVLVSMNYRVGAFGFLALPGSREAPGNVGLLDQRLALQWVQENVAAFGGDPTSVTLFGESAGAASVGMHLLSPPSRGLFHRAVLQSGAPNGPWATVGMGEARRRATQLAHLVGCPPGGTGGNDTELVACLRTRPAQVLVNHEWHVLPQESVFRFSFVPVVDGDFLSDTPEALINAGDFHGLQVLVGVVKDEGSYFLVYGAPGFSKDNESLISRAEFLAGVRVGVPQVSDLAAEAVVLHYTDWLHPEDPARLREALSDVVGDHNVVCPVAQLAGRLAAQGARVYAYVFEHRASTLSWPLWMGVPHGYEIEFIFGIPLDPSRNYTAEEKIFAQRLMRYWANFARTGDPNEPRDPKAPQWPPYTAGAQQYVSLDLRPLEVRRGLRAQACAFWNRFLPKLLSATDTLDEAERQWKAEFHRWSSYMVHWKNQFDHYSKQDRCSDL

| Structure (SMILES) | IC50 |
| --- | --- |
| CN(CCCCCOc1ccc2c(=O)c3ccccc3oc2c1)Cc1ccccc1 | 6250 nM |
| CCN(CCCCCOc1ccc2c(=O)c3ccccc3oc2c1)Cc1cccc(OC(=O)NC)c1 | 0.82 nM |
| CNCOc1cccc(CN(C)CCCCCCCOc2ccc3c(=O)c4ccccc4oc3c2)c1 | 0.32 nM |
